Results reported in ChEMBL document CHEMBL3639216, “Compounds and method for treatment of HIV” (2015).

Molecular target: Gag-Pol polyprotein (Human immunodeficiency virus type 1 group M subtype A (isolate U455)(HIV-1), UniProt P24740)
Test: Integrase Assay: The effect of each compound on HIV integrase activity was assayed using the HIV-1 Integrase Assay Kit version 2.0, catalogue number EZ-1700 obtained from XpressBio Life Science Products. Immediately prior to the start of the assay, both compounds were dissolved in dimethyl sulfoxide (DMSO) and used immediately in the HIV integration assay. The assay was performed according to the instructions listed by the manufacturer (XpressBio Life Science Products, Maryland, USA). In brief, the required streptavidin-coated strip wells were coated with DS oligo and placed overnight at 4° C. The plates were then incubated with integrase and followed by the addition of test articles at the desired concentration. The plates were developed using the supplied HRP antibody and TMB peroxidase substrate as per the manufacturer's instructions. The reactions were stopped with TMB stop solution and immediately read (<10 min) using a VICTOR XXX. The absorbance of each well was read at 450 nm for 0.5 sec.

Gag-Pol polyprotein, sequence (P24740 1141-1428 limits assumed): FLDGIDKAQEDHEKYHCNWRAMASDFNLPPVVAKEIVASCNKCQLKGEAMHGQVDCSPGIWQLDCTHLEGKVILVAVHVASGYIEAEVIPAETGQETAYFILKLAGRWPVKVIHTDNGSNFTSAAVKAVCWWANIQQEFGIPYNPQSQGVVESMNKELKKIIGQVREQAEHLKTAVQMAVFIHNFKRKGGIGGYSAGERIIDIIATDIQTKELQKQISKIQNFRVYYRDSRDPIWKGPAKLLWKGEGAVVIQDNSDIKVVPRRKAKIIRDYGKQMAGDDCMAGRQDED

Row | SMILES | IC50 [µM]
1 | Cn1cnc(-c2nnc(Cc3ccc(F)cc3)o2)c(O)/c1=N/O | 58.7
2 | Cn1nc(-c2nnc(Cc3ccc(F)cc3)o2)/c(=N/O)c2ncccc21 | 23.9
